{"source": "patent US11311561B2", "about": "“Composition and method for treating, relieving or preventing neuropathic pain, containing choline alfoscerate as active ingredient” (NANOSTEM CO., LTD., priority 2017, dated 2022)", "key": {"[1]": {"tested_on": "patients with neuropathic pain", "test": "Clinical trial: pain intensity by 11-point pain intensity numerical rating scale (PI-NRS) over 12 weeks", "type": "in vivo, human", "from_the_text": "Patients with neuropathic pain were selected as subjects. The patients were asked to report the characteristics of neuropathic pain (type of neuropathic pain, site of occurrence, time of occurrence and frequency of occurrence), causative factors of pain, presence of diseases and relationship with pain, relationship between pain and drug medication, medication of therapeutic agents for pain, etc.\nThe characteristics of “nerve block treatment group (control group)” patients are described in Table 1, the characteristics of “choline alfoscerate intravenous administration group (Example 1)” patients are described in Table 2 and the characteristics of “choline alfoscerate oral administration group (Example 2)” patients are described in Table 3.\n(§1) The “nerve block treatment group (control group)” patients were injected with 5 mL of 0.5% lidocaine at the sites of pain (4-5 points), once a week.\n(§2) The “choline alfoscerate intravenous administration group (Example 1)” patients were intravenously injected slowly with choline alfoscerate (1 g/4 mL) mixed in 100 mL of physiological saline, twice a week.\n(§3) The “choline alfoscerate oral administration group (Example 2)” patients were […] with choline alfoscerate (400 mg/capsule), 3 times a day.\nPain intensity was measured for 12 weeks. The pain intensity was evaluated according to the 11-point pain intensity numerical rating scale (PI-NRS), where 0=no pain, weakest pain=1 and most severe pain=10. 2-point reduction in the pain intensity was considered clinically significant as reported (Farrar 2001, Rowbotham 2001, Hawker 2011). The pain intensity was measured on the first visit (T0) and was compared with the pain intensity 2 weeks (T1), 4 weeks (T2), 6 weeks (T3), 8 weeks (T4), 10 weeks (T5) and 12 weeks (T6) after the first drug administration.\nStatistical analysis was conducted using the SASS package ver. 23 and significance was tested by the paired t-test."}, "[2]": {"test": "Clinical trial: side effects after the treatment", "type": "in vivo, human", "conditions": "Example 1: iv 1 g twice a week; Example 2: oral 400 mg 3 times a day; patients", "protocol": "as §1, §2, §3\nBecause choline alfoscerate has no effect on the kidney and liver, it is thought that it can be used for people with kidney or liver problems as a therapeutic agent for neuropathic pain."}, "[3]": {"tested_on": "spared nerve injury (SNI) rat model", "test": "Von Frey filament test (50% up and down threshold) for mechanical allodynia", "type": "in vivo, Sprague-Dawley (SD) male rats", "conditions": "for Mechanical threshold (von Frey), Before: 4 weeks after surgery, before drug treatment; for Effect on mechanical allodynia (in words): pregabalin 30 mg/kg or choline alfoscerate 325 mg/kg ip once a day for one week", "from_the_text": "The spared nerve injury (SNI) rat model was used as an efficient neuropathic pain model and von Freytest was used for assessing mechanical threshold. The SNI model, one of the peripheral nerve injury models that made from the 3 nerve branches (sciatic nerve), the one was spared, and the other 2 nerves (tibial, common peroneal nerve) were axotomized. Within 4 days of injury, mechanical and thermal hyperalgesia occurs, lasting weeks to up to 6 months.\nSprague-Dawley (SD) male rats (Koatech, South Korea) weighing 100-150 g, were used to generate neuropathic pain rat models. The rats were maintained under specifically controlled conditions (ambient temperature 23±2° C., 12-h light/dark cycle). Food pellets (DBL, Chungbuk, South Korea) and water were supplied ad libitum. All procedures complied with Institutional Animal Care and Use Committee of Dankook University (IACUC, South Korea), which adheres to the guidelines issued by the Institution of Laboratory of Animal Resources.\nAfter surgery, rats were divided into three groups: (1) control (0.9% normal saline), (2) pregabalin (30 mg/kg), (3) choline alfoscerate (325 mg/kg).\nFour weeks later after surgery, Drugs were injected intraperitoneally once a day for one week.\nTo generate an efficient neuropathic pain model, the rats were anesthetized under 3% isoflurane (Hana Pharm., South Korea), the left calf of the rat leg was incised and the common peroneal and the tibial nerve of three peripheral nerve branches in the sciatic nerve were axotomized and the sural nerve was spared then the surgical site was closed. After the surgery, animals were placed in the home cage to recover. 2 weeks after surgery, hypersensitivity will occur in the lateral area of the rat left hind paw.\n4 weeks later after surgery, we applied von Frey filament test established by 50% up and down threshold method for evaluate mechanical allodynia in SNI model we made (Chaplan et al. 1994). The pain measurement was carried out by three people in order to objectify the results. Rats were habituated 5 minutes in the apparatus. […] We stimulated 5 times in the ventral aspect of rat left paw using each filament from thick to thin. If the rat response to stimulate over 3 times, we considered that the rat has NP. The pain response was determined by the behaviors of the rats suddenly took off their foot and shrank or licked their foot with their tongues. The behavioural patterns of the pain were recorded to calculate the threshold value of the pain.\n4 weeks after surgery, when the mechanical stimuli were applied to the left paw of rats using von Frey monofilaments, thresholds were calculated by looking at the behavioral patterns. Through this test, the behavioral patterns that appeared when mechanical stimuli were applied to the neuropathic pain model and expressed as threshold which was a […] assessment of the pain scoring."}}, "note": "Several values for one entry are separate records, joined by “and”; a condition that tells them apart may be missing. Identical values can stand only once."}
{"smiles": "C[N+](C)(C)CCOP(=O)([O-])OC[C@H](O)CO", "note": "[Choline alfoscerate, choline alfoscerate]", "values": [{"measurement": "Change in pain intensity of neuropathic pain (in words)", "setting": "[1]; Example 1: iv 1 g twice a week, Example 2: oral 400 mg 3 times a day, 12 weeks", "value": "significant decrease in the pain intensity"}, {"measurement": "Time after drug administration at which some patients reported decreased neuropathic pain", "setting": "[1]; Example 1: iv, Example 2: oral, some patients", "value": "the next day"}, {"measurement": "Pain intensity (PI-NRS)", "setting": "[1]; T0, first visit before drug administration, choline alfoscerate iv group, 1 g/4 mL in 100 mL saline twice a week, n=59, listed as Example 1", "value": "6.64 points and 6.64 ± 1.03 points"}, {"measurement": "Pain intensity (PI-NRS)", "setting": "[1]; T0, first visit before drug administration, choline alfoscerate oral group, 400 mg/capsule 3 times a day, n=54, listed as Example 2", "value": "6.61 points and 6.61 ± 0.83 points"}, {"measurement": "Decrease in pain intensity (PI-NRS) from T0", "setting": "[1]; T0 to T6 (12 weeks), choline alfoscerate iv 1 g twice a week", "value": 4.18, "unit": "points"}, {"measurement": "Decrease in pain intensity (PI-NRS) from T0", "setting": "[1]; T0 to T6 (12 weeks), choline alfoscerate oral 400 mg 3 times a day", "value": 4.48, "unit": "points"}, {"measurement": "Pain intensity (PI-NRS)", "setting": "[1]; T1, 2 weeks after first administration, choline alfoscerate iv 1 g twice a week, listed as Example 1", "value": "5.19 points and 5.19 ± 1.59 points"}, {"measurement": "Pain intensity (PI-NRS)", "setting": "[1]; T1, 2 weeks after first administration, choline alfoscerate oral 400 mg 3 times a day, listed as Example 2", "value": "5.41 points and 5.41 ± 1.16 points"}, {"measurement": "Pain intensity (PI-NRS)", "setting": "[1]; T2, 4 weeks, choline alfoscerate iv 1 g twice a week", "value": "4.56 ± 1.50", "unit": "points"}, {"measurement": "Pain intensity (PI-NRS)", "setting": "[1]; T2, 4 weeks, choline alfoscerate oral 400 mg 3 times a day", "value": "4.52 ± 1.42", "unit": "points"}, {"measurement": "Pain intensity (PI-NRS)", "setting": "[1]; T3, 6 weeks, choline alfoscerate iv 1 g twice a week", "value": "3.92 ± 1.42", "unit": "points"}, {"measurement": "Pain intensity (PI-NRS)", "setting": "[1]; T3, 6 weeks, choline alfoscerate oral 400 mg 3 times a day", "value": "3.63 ± 1.45", "unit": "points"}, {"measurement": "Pain intensity (PI-NRS)", "setting": "[1]; T4, 8 weeks, choline alfoscerate iv 1 g twice a week", "value": "3.34 ± 1.21", "unit": "points"}, {"measurement": "Pain intensity (PI-NRS)", "setting": "[1]; T4, 8 weeks, choline alfoscerate oral 400 mg 3 times a day", "value": "3.00 ± 1.23", "unit": "points"}, {"measurement": "Pain intensity (PI-NRS)", "setting": "[1]; T5, 10 weeks, choline alfoscerate iv 1 g twice a week", "value": "2.85 ± 1.10", "unit": "points"}, {"measurement": "Pain intensity (PI-NRS)", "setting": "[1]; T5, 10 weeks, choline alfoscerate oral 400 mg 3 times a day", "value": "2.59 ± 1.13", "unit": "points"}, {"measurement": "Pain intensity (PI-NRS)", "setting": "[1]; T6, 12 weeks, choline alfoscerate iv 1 g twice a week, listed as Example 1", "value": "2.46 points and 2.46 ± 0.99 points"}, {"measurement": "Pain intensity (PI-NRS)", "setting": "[1]; T6, 12 weeks, choline alfoscerate oral 400 mg 3 times a day, listed as Example 2", "value": "2.13 points and 2.13 ± 0.99 points"}, {"measurement": "Side effect after the treatment", "setting": "[2]", "value": "no side effect"}, {"measurement": "Mechanical threshold (von Frey), Before", "setting": "[3]; choline alfoscerate group", "value": "2.59 ± 0.87", "unit": "g"}, {"measurement": "Mechanical threshold (von Frey), After", "setting": "[3]; after choline alfoscerate 325 mg/kg intraperitoneally once a day for one week", "value": "7.68 ± 4.48", "unit": "g"}, {"measurement": "Effect on mechanical allodynia (in words)", "setting": "[3]", "value": "significantly suppressed mechanical allodynia"}]}
{"smiles": "CCN(CC)CC(=O)Nc1c(C)cccc1C", "note": "[Control group, lidocaine]", "values": [{"measurement": "Pain intensity (PI-NRS)", "setting": "[1]; T0, first visit before drug administration, nerve block group, 5 mL of 0.5% lidocaine at sites of pain once a week, n=38", "value": "7.00 ± 0.52", "unit": "points"}, {"measurement": "Pain intensity (PI-NRS)", "setting": "[1]; T0, first visit before drug administration, nerve block group, 5 mL of 0.5% lidocaine at sites of pain once a week, n=38, listed as control group", "value": 7.00, "unit": "points"}, {"measurement": "Decrease in pain intensity (PI-NRS) from T0", "setting": "[1]; T0 to T1 (2 weeks), nerve block 0.5% lidocaine once a week", "value": 1.61, "unit": "points"}, {"measurement": "Decrease in pain intensity (PI-NRS) from T0", "setting": "[1]; T0 to T6 (12 weeks), nerve block 0.5% lidocaine once a week", "value": 4.76, "unit": "points"}, {"measurement": "Pain intensity (PI-NRS)", "setting": "[1]; T1, 2 weeks after first administration, nerve block 0.5% lidocaine once a week", "value": "5.39 ± 0.89", "unit": "points"}, {"measurement": "Pain intensity (PI-NRS)", "setting": "[1]; T1, 2 weeks after first administration, nerve block 0.5% lidocaine once a week, listed as control group", "value": 5.39, "unit": "points"}, {"measurement": "Pain intensity (PI-NRS)", "setting": "[1]; T2, 4 weeks, nerve block 0.5% lidocaine once a week", "value": "4.66 ± 0.85", "unit": "points"}, {"measurement": "Pain intensity (PI-NRS)", "setting": "[1]; T3, 6 weeks, nerve block 0.5% lidocaine once a week", "value": "3.63 ± 0.79", "unit": "points"}, {"measurement": "Pain intensity (PI-NRS)", "setting": "[1]; T4, 8 weeks, nerve block 0.5% lidocaine once a week", "value": "2.87 ± 0.81", "unit": "points"}, {"measurement": "Pain intensity (PI-NRS)", "setting": "[1]; T5, 10 weeks, nerve block 0.5% lidocaine once a week", "value": "2.37 ± 0.79", "unit": "points"}, {"measurement": "Pain intensity (PI-NRS)", "setting": "[1]; T6, 12 weeks, nerve block 0.5% lidocaine once a week", "value": "2.24 ± 0.91", "unit": "points"}, {"measurement": "Pain intensity (PI-NRS)", "setting": "[1]; T6, 12 weeks, nerve block 0.5% lidocaine once a week, listed as control group", "value": 2.24, "unit": "points"}]}
{"smiles": "CC(C)C[C@H](CN)CC(=O)O", "note": "[Pregabalin, pregabalin]", "values": [{"measurement": "Mechanical threshold (von Frey), Before", "setting": "[3]; pregabalin group", "value": "2.42 ± 0.81", "unit": "g"}, {"measurement": "Mechanical threshold (von Frey), After", "setting": "[3]; after pregabalin 30 mg/kg intraperitoneally once a day for one week", "value": "9.91 ± 4.12", "unit": "g"}, {"measurement": "Effect on mechanical allodynia (in words)", "setting": "[3]", "value": "significantly suppressed mechanical allodynia"}]}
